# Source: patent EP4474016A1, “STRATEGIES TO TARGET EXTRACELLULARLY ACCESSIBLE RAS PROTEIN” (Julius-Maximilians-Universität Würzburg, priority 2023, dated 2024)
# What was measured:
# [1] = test system: human Multiple Myeloma cell lines MM.1S; assay: in vitro killing assay of anti-Ras bispecific antibody alone or in combination with Lenalidomide (luciferase read-out); format: cell-based; conditions: MM1.S, Lenalidomide 1.5 µM alone, compared to the cells without Lenalidomide
# Description: (§1) The anti-Ras bispecific antibody constructs SFV02_PCC06 (SEQ ID No 75 + 76) was tested in cell culture against the human Multiple Myeloma cell lines MM.1S and the human acute monocytic leukemia cell line MV4-11. The MM. 1S and MV4-11 cells are luziferase positive and were seeded into 96-well cell culture plates (for each cell line 7500 cells in 50 µL per well in 150 µL medium) in the corresponding medium (Table 1) and incubated at 37°C and 5% CO2 for 24 hours. The next day, fresh human CD3+/CD8+ T-cells were added to each well, for a final tumour cell to T cells ratio of 1 to 5. Two dilution series were prepared of the SFV02_PCC06 antibody: (i) A final concentration of 25 nM, 12.5 nM, 6.25 nM and 3.125 nM (Figure 15), and (ii) a final concentration of 15 nM, 7.5 nM, 3.75 nM, 1.87 nM, 0.93 nM, 0.46 nM, 0.23 nM and 0.11 nM (Figure 16). From the antibody dilution series, 20 µL was added to each respective well.
# (§2) To test if chemical compounds can improve and/or increase the bi-specific anti Ras antibody directed killing of tumours cells, two compounds were tested. […] Afterwards, the bioluminescence of the firefly-luciferase was measured, using a Tecan Spark plate reader (with an absorbance scan from 350 nm to 700 nm with an integration time interval of 1000 ms).
# [2] = test system: aberrant expressed Ras on the cell surface; assay: cell-based ELISA of aberrant Ras protein on the cell surface under normal and stress conditions; parameters: species or system human; conditions: versus complete medium; for aberrant Ras expression on the cell surface: Lenalidomide 1.5µM overnight
# Description: For the cell-based ELISA, different adherent cell lines (AsPC-1, Panc-1, SK-BR-3 and BT-474) were used. First, the cell culture medium was removed, and the cells were washed one time with PBS. After washing, 2 ml of […] Trypsin-EDTA (Gibco, #25300054) was added to trypsinise the cells for 3 min at 37°C. Then, 13 ml of complete medium (Table 1) was added to stop the trypsinisation process. Cell numbers were count via Trypan Blue staining and 30.000 viable cells in 50 µl were seeded out per well, in a 96-well tissue culture plate at 37°C and 5% CO2. After overnight adhesion of the cells, three different mechanisms to induce cellular stress on the tumour cells were tested: (i) addition of 0,5% DMSO in the cell culture medium, (ii) adding 1,5 µM Lenalidomide in the cell culture medium, (iii) or replacement of the complete medium by cell culture medium without supplemented FBS for serum-starvation. As normal control, for cells not under additional cellular stress, cells were left in complete medium. The stress-induction was performed overnight at 37°C and 5% CO2. The next day, to reduce unspecific binding of detection antibody to the plastic of the cell culture plate, each well was filled up to the top with 50% FBS in PBS, carefully pipette on top of the incubation medium, and incubated for 30 minutes at 37°C. Then, the all medium was discarded from the wells and 50 µl of 1:100-diluted FcR Blocking Reagent (MACS Miltenyi #130-059-901) was added to each well to avoid unspecific binding by blocking of the Fc-Receptors on the tumour cells. […]
# The HRP-reaction was stopped after sufficient colour development by adding 50 µl of stop solution (1 N Sulfuric Acid) to each well. Finally, the absorbance was measured in each well at a wavelength of 450 nm and a reference wavelength of 630 nm with a Tecan SPARK® multimode-mikroplate-reader. The absorbance values from the unspecific HRP-labelled control samples (samples without primary antibody but with corresponding HRP labelled secondary antibody), were used for the zero baseline model and set at 0 (Figure 19 and 20).
# [3] = test system: human acute monocytic leukemia cell line MV4-11; assay: in vitro killing assay of anti-Ras bispecific antibody alone or in combination with DMSO (luciferase read-out); format: cell-based; conditions: alone, read-out: viability drop of MV4-11 cells
# Description: as §1, §2
SMILES,percent drop in cell viability at 1.5 µM [1] [%],aberrant Ras expression on the cell surface ([2]; AsPc-1 cells),aberrant Ras expression on the cell surface ([2]; SK-BR-3 cells),viability drop at 70.4 µM [3] [%],"aberrant Ras protein on the cell surface ([2]; the four solid tumour cells (AsPC-1, Panc-1, MS-18, SK-BR-3), DMSO 0.5% (v/v))"
Nc1cccc2c1CN(C1CCC(=O)NC1=O)C2=O (centres unmarked) [Lenalidomide],25,up-regulating,up-regulating,,
"C[S+](C)[O-] [DMSO, Dimethyl Sulfoxide]",,,,30,down-regulating
